The text below walks through data of patent publication US20240115557A1, “INHIBITORS OF RNA-GUIDED NUCLEASES AND USES THEREOF” (The Brigham and Women's Hospital, Inc., priority 2022, published 2024).

The target in experiment [1] is SpCas9 (Streptococcus pyogenes serotype M1, UniProt Q99ZW2). As to the kind of experiment: T7E1 assay for indels at the eGFP gene. It counts as cell-based. The following applies: U2OS.eGFP.PEST, 24 h. Here is the method:
FIG. 72A-72E Validation of BRD7586 in cells FIG. 72A T7E1 assay for detecting indels at the eGFP gene. U20S.eGFP.PEST cells were nucleofected with plasmid and incubated with BRD7586 for 24 h. Blue arrowheads indicate uncleaved DNA and black arrowheads indicate cleaved DNA. FIG. 72B T7E1 for detecting indels at the eGFP gene. U20S.eGFP.PEST cells were nucleofected with RNP and incubated with BRD7586 for 24 h. Blue arrowheads indicate uncleaved DNA and black arrowheads indicate cleaved DNA FIG. 72C Inhibition of SpCas9 by BRD0539 and BRD7586 in the eGFP disruption assay using plasmid delivery method and RNP delivery method (U20S.eGFP.PEST cells, 24 h). Error bars represent SD from 3 or 4 independent experiments. […]
FIG. 75A-75E Mechanism of action studies of BRD7586 FIG. 75A Workflow of the chemoproteomics experiments using the diazirine-based photo-crosslinking probe to identify binding sites of BRD7586 on SpCas9 FIG. 75B T7E1 assay for measuring the activity of Diazirine-BRD7586. […] Blue arrowheads indicate uncleaved DNA while black arrowheads indicate cleaved DNA from the T7E1 reaction FIG. 75C Chemical structure of the acid-cleavable and isotope-coded biotin-azide used for chemoproteomics experiments FIG. 75D Structure of the peptide-compound conjugates to be detected from the mass spectrometry. […]

For experiment [2], the target named is SpCas9:gRNA (Streptococcus pyogenes serotype M1, UniProt Q99ZW2). The experiment is described as follows: Photo-crosslinking to purified SpCas9:gRNA. It is filed as binding. The following applies: 1 μM probe, 1 μM SpCas9:gRNA, UV 365 nm. Here is the method:
Cas9 RNP complex was formed by mixing Cas9 (1 μM) and the eGFP-targeting gRNA (1 μM) in a binding buffer (HEPES 20 mM, KCl 100 mM, pH 7.6) for 15 min. Next, BRD7586 (5 μM) was added to the mixture when competition is required (the last lane of FIG. 68B). Finally, Diazirine-BRD7586 was added (1 μM) and the mixture was incubated for 20 min at RT with a final reaction volume of 20 μL in a PCR tube. The mixture was irradiated with UV (365 nm) for 5 min on ice, then 2.5 μL of 10% RapiGest SF solution in PBS was added. Click chemistry was initiated by adding 100 μM of TAMRA-azide (Sigma #760757), 350 μM of Cu-TBTA, and 1.5 mM ascorbate with a final reaction volume of 27 μL. The reaction was conducted for 1 h at 30° C., then SDS-PAGE was performed immediately. The fluorescence gel scanning was conducted using an Azure 600 (Azure Biosystem) to detect the TAMRA fluorescence.

SpCas9, sequence (Q99ZW2 whole entry): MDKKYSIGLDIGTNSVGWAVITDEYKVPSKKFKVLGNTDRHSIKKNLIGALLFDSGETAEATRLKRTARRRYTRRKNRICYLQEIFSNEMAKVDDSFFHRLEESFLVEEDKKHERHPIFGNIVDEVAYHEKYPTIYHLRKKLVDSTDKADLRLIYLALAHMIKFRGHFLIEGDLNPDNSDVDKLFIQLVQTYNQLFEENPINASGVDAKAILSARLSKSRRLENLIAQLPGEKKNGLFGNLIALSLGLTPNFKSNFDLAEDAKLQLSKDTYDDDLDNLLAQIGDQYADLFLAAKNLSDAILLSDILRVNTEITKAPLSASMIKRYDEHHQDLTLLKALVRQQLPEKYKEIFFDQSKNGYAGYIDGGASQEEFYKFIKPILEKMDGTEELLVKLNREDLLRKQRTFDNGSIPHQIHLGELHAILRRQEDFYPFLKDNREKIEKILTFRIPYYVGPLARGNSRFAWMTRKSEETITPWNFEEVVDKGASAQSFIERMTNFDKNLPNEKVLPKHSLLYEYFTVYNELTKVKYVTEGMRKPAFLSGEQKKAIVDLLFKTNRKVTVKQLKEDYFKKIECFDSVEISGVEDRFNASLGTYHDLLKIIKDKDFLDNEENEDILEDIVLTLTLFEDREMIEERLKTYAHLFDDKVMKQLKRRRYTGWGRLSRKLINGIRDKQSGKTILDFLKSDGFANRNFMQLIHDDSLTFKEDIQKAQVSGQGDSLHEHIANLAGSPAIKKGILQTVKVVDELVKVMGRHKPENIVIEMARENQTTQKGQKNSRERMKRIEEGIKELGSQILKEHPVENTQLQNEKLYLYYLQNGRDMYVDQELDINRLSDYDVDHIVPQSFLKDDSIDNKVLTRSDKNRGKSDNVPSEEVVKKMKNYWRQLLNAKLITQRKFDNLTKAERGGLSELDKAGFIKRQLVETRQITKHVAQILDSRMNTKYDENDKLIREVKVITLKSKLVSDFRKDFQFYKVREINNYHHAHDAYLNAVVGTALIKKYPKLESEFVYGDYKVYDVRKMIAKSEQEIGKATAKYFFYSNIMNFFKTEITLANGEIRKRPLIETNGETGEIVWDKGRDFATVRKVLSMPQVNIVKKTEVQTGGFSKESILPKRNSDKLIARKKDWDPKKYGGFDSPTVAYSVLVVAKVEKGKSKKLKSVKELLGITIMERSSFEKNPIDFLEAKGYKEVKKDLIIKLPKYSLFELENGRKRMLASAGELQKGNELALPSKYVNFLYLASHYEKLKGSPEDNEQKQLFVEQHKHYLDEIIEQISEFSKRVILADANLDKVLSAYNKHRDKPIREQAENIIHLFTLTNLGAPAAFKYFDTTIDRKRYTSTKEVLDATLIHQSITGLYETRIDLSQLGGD
SpCas9:gRNA, sequence (Q99ZW2 whole entry): as above

With `C#CCCC1(CCOc2ccc(S(=O)(=O)CCC(=O)Nc3nc(-c4ccncc4)cs3)cc2)N=N1` [diazirine-BRD7586], the “Inhibition of SpCas9 in cells by probe” value in experiment [1] is recorded as “inhibited SpCas9 in cells”. For the same compound, in experiment [2], the “Photo-crosslinking to SpCas9” value is listed as “successful covalent conjugation of the probe to SpCas9”.
